Source: ChEMBL document CHEMBL1201862, “PubChem BioAssay data set” (2004)
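Interpolation was linear, between the two tested concentrations surrounding the appropriate level; five concentrations were tested over 48 hours in 96-well plates. GI50 is the concentration that inhibits growth by half.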 Activity calls are given as the source filed them. Cut-off read from the data, not from the text of the source: active = GI50 up to about 1.1 µM and inactive = higher.

Experiments:
Assay in all cases: inhibition of tumour cell growth, NCI panel, 48 h
SK-OV-3 = test system: SK-OV-3
T47D = test system: T47D
OVCAR-4 = test system: OVCAR-4
CAKI-1 = test system: CAKI-1
LOX IMVI = test system: LOX IMVI
K562 = test system: K562
OVCAR-5 = test system: OVCAR-5
UACC-62 = test system: UACC-62
MDA-MB-231 = test system: MDA-MB-231
SNB-19 = test system: SNB-19
UO-31 = test system: UO-31
U-251 = test system: U-251
SF-295 = test system: SF-295
EKVX = test system: EKVX
HOP-62 = test system: HOP-62
MCF7 = test system: MCF7
BT-549 = test system: BT-549
M14 = test system: M14
RXF 393 = test system: RXF 393
NCI-H522 = test system: NCI-H522

Measured: GI50

CC1OC(O[C@@H]2OC=C(C=O)[C@@]3(O)CC[C@H](C)[C@@H]23)C(O)C(O)C1O (stereo not given in full)
inactive: SK-OV-3 > 100 µM | T47D > 100 µM | OVCAR-4 > 100 µM | CAKI-1 > 100 µM | LOX IMVI > 100 µM | K562 > 100 µM | OVCAR-5 > 100 µM | UACC-62 > 100 µM | MDA-MB-231 > 100 µM | SNB-19 > 100 µM | UO-31 > 100 µM | U-251 > 100 µM | SF-295 > 100 µM | EKVX > 100 µM | HOP-62 > 100 µM | MCF7 > 100 µM | BT-549 > 100 µM | M14 > 100 µM | RXF 393 > 100 µM | NCI-H522 > 100 µM
